# Patent US9663496B2, “AMPK-activating heterocyclic compounds and methods for using the same” (Rigel Pharmaceuticals, Inc., priority 2010, dated 2017)
# Molecular target: AMPK
# Test: AMPK activation, enzyme-linked immunosorbent assay
# Assay type: biochemical
# Settings: EC50 for AMPK activation, ELISA
# Outline: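 Kit-based immunoassay; compounds screened as activators; standard reagents and protocol.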
row,Compound,EC50 [nM]
1,"N#Cc1ccc(CN2CCC(NC(=O)c3ccc(C(=O)N4CCC(Oc5cccc(C#N)c5)CC4)cn3)CC2)cc1 [Compound 155, N-(1-(4-cyanobenzyl)piperidin-4-yl)-5-(4-(3-cyanophenoxy)piperidine-1-carbonyl)picolinamide]",< 500
2,"N#Cc1ccc(CN2CCC(NC(=O)c3ccc(C(=O)N4CCN(CC5CCCCC5)CC4)cn3)CC2)cc1 [Compound 95, N-(1-(4-cyanobenzyl)piperidin-4-yl)-5-(4-(cyclohexylmethyl)piperazine-1-carbonyl)picolinamide]",< 500
3,"CS(=O)(=O)c1ccc(OC2CCN(C(=O)c3ccc(C(=O)N[C@@H]4CCN(Cc5ccc(C#N)cc5)C[C@H]4F)nc3)CC2)cc1 (relative stereo) [Compound 254, N-((trans)-1-(4-cyanobenzyl)-3-fluoropiperidin-4-yl)-5-(4-(4-(methylsulfonyl)phenoxy)piperidine-1-carbonyl)picolinamide]",< 500
4,"COc1ccc(C(=O)C2CCN(C(=O)c3ccc(C(=O)Nc4ccc(Oc5ccc(C(C)=O)cc5)nc4)cn3)CC2)cc1 [Compound 462, N-(6-(4-acetylphenoxy)pyridin-3-yl)-6-(4-(4-methoxybenzoyl)piperidine-1-carbonyl)nicotinamide]",< 500
5,"N#Cc1ccc(CN2CCC(NC(=O)c3ccc(C(=O)N4CCC(C(=O)c5ccc(C#N)cc5)CC4)cn3)CC2)cc1 [Compound 369, 5-(4-(4-cyanobenzoyl)piperidine-1-carbonyl)-N-(1-(4-cyanobenzyl)piperidin-4-yl)picolinamide]",< 500
6,"COc1ccc(C(=O)C2CCN(C(=O)c3ccc(C(=O)N[C@H]4CC[C@@H](Oc5ccc(F)cc5)CC4)nc3)CC2)cc1 [Compound 311, N-((cis)-4-(4-fluorophenoxy)cyclohexyl)-5-(4-(4-methoxybenzoyl)piperidine-1-carbonyl)picolinamide]",< 500
7,"COc1cccc(CC2CCN(C(=O)c3ccc(C(=O)NC4CCN(Cc5ccc(C#N)cc5)CC4)nc3)CC2)c1 [Compound 147, N-(1-(4-cyanobenzyl)piperidin-4-yl)-5-(4-(3-methoxybenzyl)piperidine-1-carbonyl)picolinamide]",< 500
8,"N#Cc1ccc(CN2CCC(NC(=O)c3ccc(C(=O)N4CC[C@H](Oc5ccc(C#N)cc5)[C@@H](F)C4)cn3)CC2)cc1 (relative stereo) [Compound 279, N-(1-(4-cyanobenzyl)piperidin-4-yl)-5-((trans)-4-(4-cyanophenoxy)-3-fluoropiperidine-1-carbonyl)picolinamide]",< 500
9,"COc1ccc(CN2CCC(NC(=O)c3ccc(C(=O)N4CCC(C(=O)c5ccc(S(C)(=O)=O)cc5)CC4)cn3)CC2)cc1 [Compound 234, N-(1-(4-methoxybenzyl)piperidin-4-yl)-5-(4-(4-(methylsulfonyl)benzoyl)piperidine-1-carbonyl)picolinamide]",< 500
10,"N#Cc1ccc(CN2CCC(NC(=O)c3ccc(C(=O)N4CCC(Oc5ccc(S(=O)(=O)C6CC6)cc5)CC4)nc3)CC2)cc1 [Compound 246, N-(1-(4-cyanobenzyl)piperidin-4-yl)-6-(4-(4-(cyclopropylsulfonyl)phenoxy)piperidine-1-carbonyl)nicotinamide]",< 500
11,"N#Cc1ccc(OC2CCN(C(=O)c3ccc(C(=O)N[C@H]4CC[C@@H](Oc5ccc(F)cc5)CC4)cn3)CC2)cc1 [Compound 324, 6-(4-(4-cyanophenoxy)piperidine-1-carbonyl)-N-((cis)-4-(4-fluorophenoxy)cyclohexyl)nicotinamide]",< 500
12,"O=C(NC1CCN(Cc2ccccc2)CC1)c1ccc(C(=O)N2CCN(Cc3ccccc3)CC2)nc1 [Compound 74, 6-(4-benzylpiperazine-1-carbonyl)-N-(1-benzylpiperidin-4-yl)nicotinamide]",< 500
13,"COc1ccc(C(=O)C2CCN(C(=O)c3ccc(C(=O)Nc4ccc(Oc5ccc(C#N)cc5)nc4)cn3)CC2)cc1 [Compound 460, N-(6-(4-cyanophenoxy)pyridin-3-yl)-6-(4-(4-methoxybenzoyl)piperidine-1-carbonyl)nicotinamide]",< 500
14,"COc1ccc(CC2CCN(C(=O)c3ccc(C(=O)NC4CCN(Cc5ccc(C#N)cc5)CC4)nc3)CC2)cc1 [Compound 131, N-(1-(4-cyanobenzyl)piperidin-4-yl)-5-(4-(4-methoxybenzyl)piperidine-1-carbonyl)picolinamide]",< 500
15,"COc1ccc(C(=O)C2CCN(C(=O)c3ccc(C(=O)N[C@@H]4CCN(Cc5ccc(OC(C)C)cc5)C[C@H]4F)cn3)CC2)cc1 (relative stereo) [Compound 353, N-((trans)-3-fluoro-1-(4-isopropoxybenzyl)piperidin-4-yl)-6-(4-(4-methoxybenzoyl)piperidine-1-carbonyl)nicotinamide]",< 500
16,"N#Cc1ccc(CN2CCC(NC(=O)c3ccc(C(=O)N4CCC(Oc5ccc(S(F)(F)(F)(F)F)cc5)CC4)cn3)CC2)cc1 [Compound 492, N-(1-(4-cyanobenzyl)piperidin-4-yl)-5-(4-(4-(pentafluorosulfanyl)phenoxy)piperidine-1-carbonyl)picolinamide]",< 500
17,"N#Cc1ccc(CN2CCC(NC(=O)c3ccc(C(=O)N4CCC(S(=O)(=O)c5ccc(F)cc5)CC4)cn3)CC2)cc1 [Compound 262, N-(1-(4-cyanobenzyl)piperidin-4-yl)-5-(4-(4-fluorophenylsulfonyl)piperidine-1-carbonyl)picolinamide]",< 500

# Further lines, results first:
row,EC50 [nM],Compound
1,1000 to 5000,"N#Cc1ccc(-c2ccc(Nc3ccc(C(=O)NC4CCN(Cc5ccccc5)CC4)nc3)cc2)cc1 [Compound 119, N-(1-benzylpiperidin-4-yl)-5-(4′-cyanobiphenyl-4-ylamino)picolinamide]"
2,< 500,"N#Cc1ccc(OC2CCN(C(=O)c3ccc(C(=O)Nc4ccc(Oc5ccc(F)cc5)nc4)cn3)CC2)cc1 [Compound 326, 6-(4-(4-cyanophenoxy)piperidine-1-carbonyl)-N-(6-(4-fluorophenoxy)pyridin-3-yl)nicotinamide]"
3,< 500,"N#Cc1ccc(CN2CCC(NC(=O)c3ccc(N4CCC(Oc5ccc(C#N)cc5)CC4)nn3)CC2)cc1 [Compound 351, N-(1-(4-cyanobenzyl)piperidin-4-yl)-6-(4-(4-cyanophenoxy)piperidin-1-yl)pyridazine-3-carboxamide]"
4,500 to 1000,"NC(=O)c1ccc(CN2CCC(NC(=O)c3ccc(C(=O)N4CCN(Cc5ccc(F)cc5)CC4)cn3)CC2)cc1 [Compound 201, N-(1-(4-carbamoylbenzyl)piperidin-4-yl)-5-(4-(4-fluorobenzyl)piperazine-1-carbonyl)picolinamide]"
5,< 500,"CC(=O)c1ccc(OC2CCN(C(=O)c3ccc(C(=O)Nc4ccc(Oc5ccc(F)cc5)nc4)nc3)CC2)cc1 [Compound 359, 5-(4-(4-acetylphenoxy)piperidine-1-carbonyl)-N-(6-(4-fluorophenoxy)pyridin-3-yl)picolinamide]"
6,< 500,"N#Cc1ccc(OC2CCN(C(=O)c3ccc(C(=O)NC4CCN(Cc5cc(F)cc(F)c5)CC4)cn3)CC2)cc1 [Compound 322, 6-(4-(4-cyanophenoxy)piperidine-1-carbonyl)-N-(1-(3,5-difluorobenzyl)piperidin-4-yl)nicotinamide]"
7,> 10000,"O=C(c1cccc(C(=O)N2CCN(c3ccccc3)CC2)n1)N1CCN(Cc2ccc(F)cc2)CC1 [Compound 94, (4-(4-fluorobenzyl)piperazin-1-yl)(6-(4-phenylpiperazine-1-carbonyl)pyridin-2-yl)methanone]"
8,< 500,"N#Cc1ccc(CN2CCC(NC(=O)c3ccc(NC4CCN(c5ccc(F)cc5)CC4)cn3)CC2)cc1 [Compound 276, N-(1-(4-cyanobenzyl)piperidin-4-yl)-5-(1-(4-fluorophenyl)piperidin-4-ylamino)picolinamide]"
9,1000 to 5000,"CS(=O)(=O)c1ccc(C(=O)C2CCN(C(=O)c3ccc(C(=O)NC4CCN(Cc5ccc(F)cc5)CC4)cn3)CC2)cc1 [Compound 222, N-(1-(4-fluorobenzyl)piperidin-4-yl)-6-(4-(4-(methylsulfonyl)benzoyl)piperidine-1-carbonyl)nicotinamide]"
10,< 500,"N#Cc1ccc(CN2CCC(NC(=O)c3ccc(C(=O)N4CCC(c5ccc(Cl)cc5)CC4)cn3)CC2)cc1 [Compound 134, 5-(4-(4-chlorophenyl)piperidine-1-carbonyl)-N-(1-(4-cyanobenzyl)piperidin-4-yl)picolinamide]"
11,> 10000,"N#Cc1ccc(CN2CCC(NC(=O)c3ccc(C(=O)NC4CCN(Cc5ccc(C#N)cc5)CC4)nn3)CC2)cc1 [Compound 386, N3,N6-bis(1-(4-cyanobenzyl)piperidin-4-yl)pyridazine-3,6-dicarboxamide]"
12,< 500,"CN1CCN(c2ccc(C(=O)C3CCN(C(=O)c4ccc(C(=O)Nc5ccc(Oc6ccc(F)cc6)nc5)cn4)CC3)cc2)CC1 [Compound 245, N-(6-(4-fluorophenoxy)pyridin-3-yl)-6-(4-(4-(4-methylpiperazin-1-yl)benzoyl)piperidine-1-carbonyl)nicotinamide]"
13,< 500,"CC(=O)c1ccc(OC2CCN(C(=O)c3ccc(C(=O)NC4CCN(Cc5ccc(F)cc5)CC4)cn3)CC2)cc1 [Compound 391, 6-(4-(4-acetylphenoxy)piperidine-1-carbonyl)-N-(1-(4-fluorobenzyl)piperidin-4-yl)nicotinamide]"
14,> 10000,"CS(=O)(=O)Nc1ccc(CN2CCC(NC(=O)c3ccc(C(=O)N4CCC(Oc5ccc(C#N)cc5)CC4)nc3)CC2)cc1 [Compound 217, 6-(4-(4-cyanophenoxy)piperidine-1-carbonyl)-N-(1-(4-(methylsulfonamido)benzyl)piperidin-4-yl)nicotinamide]"
15,500 to 1000,"CC(=O)Nc1ccc(OC2CCN(C(=O)c3ccc(C(=O)NC4CCN(Cc5ccc(F)cc5)CC4)cn3)CC2)cc1 [Compound 406, 6-(4-(4-acetamidophenoxy)piperidine-1-carbonyl)-N-(1-(4-fluorobenzyl)piperidin-4-yl)nicotinamide]"
16,< 500,"COc1ccc(C(=O)C2CCN(C(=O)c3ccc(C(=O)NC4CCN(Cc5ccc(N6CCCC6)cc5)CC4)nc3)CC2)cc1 [Compound 194, 5-(4-(4-methoxybenzoyl)piperidine-1-carbonyl)-N-(1-(4-(pyrrolidin-1-yl)benzyl)piperidin-4-yl)picolinamide]"
